What is called melting point is the temperature, or range, at which the solid turns liquid.

Consider 50 compounds from patent publication US6784167B2, “17-beta-hydroxysteroid dehydrogenase-II inhibitors” (Bayer Pharmaceuticals Corporation, priority 2000, dated 2004).

`CN1C(=O)CC(c2ccc(N)cc2)C1C(O)c1ccc(-c2ccc(F)cc2)s1` (centres unmarked) [Example 86] gave a melting point of 209 °C.

As for `CN1C(=O)CC(c2ccccc2)C1C(O)c1ccc(C(=O)c2ccc(F)cc2)s1` (centres unmarked) [Example 65], the melting point is 229 to 232 °C (dec.).

In the case of `CN1C(=O)CC(c2ccccc2)C1C(O)c1ccc(C=Cc2ccc(F)cc2)s1` (centres unmarked) [Example 56], the melting point was 194 to 195 °C (dec.).

Compound `CN1C(=O)CC(c2ccccc2)C1C(O)C#Cc1cccc(O)c1` (centres unmarked) [Example 132] yielded a melting point of 210 to 211 °C.

In turn, `CN1C(=O)CC(c2ccccc2)C1C(O)c1cc(-c2ccccc2)cs1` (centres unmarked) [Example 42] returned a melting point of 165 °C.

In turn, `CN1C(=O)CC(c2ccccc2)C1C(O)c1ccc(-c2cccc(N)c2)o1` (centres unmarked) [Example 119] showed a melting point of 98 °C.

For the compound `CN1C(=O)CC(c2ccccc2)C1C(O)c1ccc(-c2ccc3ccccc3n2)s1` (centres unmarked) [Example 40], the melting point is 225 to 228 °C.

`Cc1ccc(C(O)C2C(c3ccccc3)CC(=O)N2C)cc1` (centres unmarked) [Example 95] had a melting point of 129 to 131 °C.

`COc1ccc(C2CC(=O)N(C)C2C(O)c2ccc(-c3ccccc3)s2)cc1` (centres unmarked) [Example 82] displayed a melting point of 215 °C.

Turning to `CN1C(=O)C[C@H](c2ccccc2F)[C@@H]1[C@H](O)c1ccc(-c2cccnc2)s1.Cl` [Example 152], the melting point fell in the range of 180 to 182 °C.

As to `CN1C(=O)CC(c2ccccc2)C1C(O)c1ccc(Sc2ccc(Cl)cc2)s1` (centres unmarked) [Example 60], the melting point was in the range of 174 to 176 °C.

`COc1cccc(C(O)C2C(c3ccccc3)CC(=O)N2C)c1` (centres unmarked) [Example 97]: the melting point is 160 to 161 °C.

In the case of `CN1C(=O)CC(c2ccccc2)C1C(O)c1ccc(-c2cccc(F)c2)s1` (centres unmarked) [Example 46], the melting point is 180 °C.

With `CN1C(=O)CC(c2ccccc2)C1C(O)c1ccc(-c2ccc(F)cc2)o1` (centres unmarked) [Example 114], the melting point was 168 °C.

The compound `CN1C(=O)CC(c2ccccc2)C1C(O)c1cccc(C(F)(F)F)c1` (centres unmarked) [Example 96] gave a melting point of 155 to 158 °C.

For the compound `Cc1ccc([C@@H](O)[C@H]2[C@@H](c3ccccc3)CC(=O)N2C)s1` (relative stereo) [Example 6, (±)-(4R*,5R*)-5-[(1S*)-hydroxy(5-methyl(2-thienyl))methyl]-1-methyl-4-phenylpyrrolidin-2-one], the melting point fell in the range of 185 to 188 °C.

As to `COc1cc(-c2ccc(C(O)C3C(c4ccccc4)CC(=O)N3C)s2)cc(OC)c1OC` (centres unmarked) [Example 49], the melting point was 190 °C (dec.).

`CN1C(=O)CC(c2ccccc2)C1C(O)c1ccc(-c2c(F)cc(F)cc2F)s1` (centres unmarked) [Example 75] came in with a melting point of 95 °C.

Compound `CN1C(=O)CC(c2ccccc2)C1C(O)c1ccc2c(c1)OCO2` (centres unmarked) [Example 108] showed a melting point of 211 °C.

`CN1C(=O)CC(c2ccccc2)C1C(O)c1ccc(-c2ccc(F)cc2)cc1` (centres unmarked) [Example 111] yielded a melting point of 117 °C.

`CN1C(=O)C[C@H](c2ccccc2)[C@@H]1[C@H](O)c1ccc(C(=O)Nc2ccccc2)s1` (relative stereo) [Example 4, (±)-5-[(1S*)(5-(N-phenylcarbamoyl)(2-thienyl))hydroxymethyl](4R*,5R*)-1-methyl-4-phenylpyrrolidin-2-one] returned a melting point of 223 to 227 °C.

`COc1cccc(-c2cccc(C(O)C3C(c4ccccc4)CC(=O)N3C)c2)c1` (centres unmarked) [Example 107] returned a melting point of 183 °C.

`CN1C(=O)C[C@@H]2c3ccccc3[C@@](O)(c3ccc(-c4ccccc4)s3)[C@@H]21` (relative stereo) [Example 24, (±)-(8S*,3aR*,8aR*)-8-hydroxy-1-methyl-8-(5-phenyl(2-thienyl))indano[2,1-b]pyrrolidin-2-one] had a melting point of 178 to 180 °C.

As for `CN1C(=O)C[C@H](c2ccccc2)[C@@H]1[C@H](O)/C=C/c1ccc(F)cc1` (relative stereo) [Example 15, (±)-(4R*,5R*)-5-[(2E)(1R*)-3-(4-fluorophenyl)-1-hydroxyprop-2-enyl]-1-methyl-4-phenylpyrrolidin-2-one], the melting point was 189 to 191 °C.

With `CC(=O)Nc1cccc(-c2cccc(C(O)C3C(c4ccccc4)CC(=O)N3C)c2)c1` (centres unmarked) [Example 102], the melting point amounted to 150 °C.

`CN1C(=O)CC(c2ccccc2)C1C(O)c1ccc(-c2cccc(C(=O)O)c2)s1` (centres unmarked) [Example 33]: the melting point is 231 °C.

For the compound `CC(=O)Nc1cccc(-c2ccc(C(O)C3C(c4ccccc4)CC(=O)N3C)s2)c1` (centres unmarked) [Example 48], the melting point was determined as 97 °C.

In turn, `COc1ccc(C(O)C2C(c3ccccc3)CC(=O)N2C)cc1` (centres unmarked) [Example 100] returned a melting point of 154 to 157 °C.

`Cc1ccc(-c2ccc(C(O)C3C(c4ccccc4)CC(=O)N3C)s2)nc1` (centres unmarked) [Example 27] returned a melting point of 173 °C.

As to `CSc1nccc(-c2ccc(C(O)C3C(c4ccccc4)CC(=O)N3C)s2)n1` (centres unmarked) [Example 77], the melting point worked out at 195 °C.

With `CN1C(=O)C[C@H](c2ccccc2)[C@@H]1[C@H](O)c1ccc(-c2ccc(F)c(Cl)c2)s1` (relative stereo) [Example 5, (±)-(4R*,5R*)-5-{(1S*)[5-(3-chloro-4-fluorophenyl)(2-thienyl)]hydroxymethyl}-1-methyl-4-phenylpyrrolidin-2-one], the melting point turned out to be 194 °C.

Consider `CN(C)c1ccc(C(O)C2C(c3ccccc3)CC(=O)N2C)cc1` (centres unmarked) [Example 101], for which the melting point was in the range of 182 to 185 °C.

Turning to `CN1C(=O)CC(c2ccccc2)C1C(O)c1cccc(-c2ccc(O)cc2)c1` (centres unmarked) [Example 110], the melting point stood at 230 °C.

Compound `CN1C(=O)C[C@H](c2ccccc2)[C@@H]1[C@H](F)c1ccc(-c2ccc(F)cc2)s1` [Example 144] displayed a melting point of 121 to 123 °C.

Compound `CC(=O)O[C@H](c1ccc(-c2ccc(F)cc2)s1)[C@H]1[C@@H](c2ccccc2)CC(=O)N1C` (relative stereo) [Example 13, (±)-(4R*,5R*)5-{(1S*)[5-(4-fluorophenyl)(2-thienyl)]acetyloxymethyl}-1-methyl4-phenylpyrrolidin-2-one] displayed a melting point of 75 °C.

Take `CN1C(=O)CC(c2ccccc2)C1C(O)c1ccc(-c2ccccc2)cc1` (centres unmarked) [Example 93]: the melting point stood at 202 °C.

`COc1ccc(-c2ccc(C(O)C3C(c4ccccc4)CC(=O)N3C)s2)cc1` (centres unmarked) [Example 39] registered a melting point of 168 to 170 °C.

`CN1C(=O)CC(c2ccccc2)C1C(O)c1cccc(-c2cccc(N)c2)c1` (centres unmarked) [Example 105]: the melting point worked out at 130 °C.

On to `CN1C(=O)C[C@H](c2ccccc2)[C@@H]1[C@H](O)CCc1ccc(F)cc1` (relative stereo) [Example 16, (±)-5-[(1R*)-3-(4-fluorophenyl)-1-hydroxypropyl](4R*,5R*)-1-methyl-4-phenylpyrrolidin-2-one], for which the melting point lay in the range of 122 to 124 °C.

`CN1C(=O)C[C@H](c2ccccc2)[C@@H]1[C@H](O)c1ccc(-c2ccc(F)cc2)s1` (relative stereo) [Example 3a, (±)-(4R*,5R*)-5-{(1S*) [5-(4-fluorophenyl)(2-thienyl)]hydroxymethyl}-1-methyl-4-phenylpyrrolidin-2-one]: the melting point was 110 °C (dec.).

On to `CN1C(=O)CC(c2ccccc2)C1C(O)c1cccc(-c2cccc(F)c2)c1` (centres unmarked) [Example 103], for which the melting point is 187 °C.

Regarding `CN1C(=O)C[C@H](c2ccccc2)[C@@H]1[C@H](O)c1ccc(-c2cccnc2)s1` (relative stereo) [Example 3b, (4R,5R)-5-{(1S)-hydroxy[5-(3-pyridinyl)-2-thienyl]methyl}-1-methyl-4-phenyl-2-pyrrolidinone], the melting point amounted to 232 °C.

Turning to `CN1C(=O)CC(c2ccccc2)C1C(O)c1ccc(C(=O)c2ccccc2)s1` (centres unmarked) [Example 63], the melting point is 202 °C (dec.).

Compound `COc1ccc2oc(C(O)C3C(c4ccccc4)CC(=O)N3C)cc2c1` (centres unmarked) [Example 113] had a melting point of 180 to 182 °C.

As to `CN1C(=O)CC(c2ccccc2)C1C(O)c1ccc(-c2cccc3ccccc23)s1` (centres unmarked) [Example 45], the melting point is 160 °C.

Compound `Cc1cccc([C@@H](O)[C@H]2[C@@H](c3ccccc3)CC(=O)N2C)c1` (relative stereo) [Example 7, (±)-(4R*,5R*)-5-[(1R*)hydroxy(3-methylphenyl)methyl]-1-methyl-4-phenylpyrrolidin-2-one] gave a melting point of 163 to 165 °C.

As to `CN1C(=O)CC(c2ccccc2)C1C(O)c1cc2ccccc2s1` (centres unmarked) [Example 41], the melting point is 195 °C (dec.).

As to `CN1C(=O)CC(c2ccccc2)C1C(O)c1ccc(Cc2ccc(F)cc2)s1` (centres unmarked) [Example 59], the melting point was 155 to 157 °C.

As for `CO[C@H](c1cccc(-c2ccccc2)c1)[C@H]1[C@@H](c2ccccc2)CC(=O)N1C` [Example 143], the melting point turned out to be 136 °C.

Take `CN1C(=O)CC(c2ccccc2)C1C(O)c1cc2ccccc2o1` (centres unmarked) [Example 112]: the melting point fell in the range of 120 to 122 °C.
